Reference: patent US9469650B2, “Melampomagnolide B derivatives” (BOARD OF TRUSTEES OF THE UNIVERSITY OF ARKANSAS, priority 2013, dated 2016)

Legend:
[1] = test system: K-562; experiment: panel of 60 human tumor cell lines, growth inhibition (Leukemia)
[2] = test system: MDA-MB-435; experiment: panel of 60 human tumor cell lines, growth inhibition (Melanoma); conditions: Homo sapiens
[3] = test system: SF-268; experiment: panel of 60 human tumor cell lines, growth inhibition (CNS Cancer); conditions: Homo sapiens
[4] = test system: SF-539; experiment: as above; conditions: Homo sapiens
[5] = test system: COLO 205; experiment: panel of 60 human tumor cell lines, growth inhibition (Colon Cancer); conditions: Homo sapiens
[6] = test system: HCT-116; experiment: as above; conditions: Homo sapiens
[7] = test system: SW-620; experiment: as above; conditions: Homo sapiens
[8] = test system: 786-0; experiment: panel of 60 human tumor cell lines, growth inhibition (Renal Cancer); conditions: Homo sapiens
[9] = test system: ACHN; experiment: as above; conditions: Homo sapiens
[10] = test system: UO-31; experiment: as above; conditions: Homo sapiens
[11] = test system: HS 578T; experiment: panel of 60 human tumor cell lines, growth inhibition (Breast Cancer); conditions: Homo sapiens, Hs-578T
[12] = test system: BT-549; experiment: as above; conditions: Homo sapiens
[13] = test system: T-47D; experiment: as above; conditions: Homo sapiens, T47D
[14] = test system: IGROV1; experiment: panel of 60 human tumor cell lines, growth inhibition (Ovarian Cancer); conditions: Homo sapiens
[15] = test system: OVCAR-5; experiment: as above; conditions: Homo sapiens
[16] = test system: OVCAR-8; experiment: as above; conditions: Homo sapiens
[17] = test system: NCI/ADR-RES; experiment: as above; conditions: Homo sapiens
[18] = test system: NCI-H522; experiment: panel of 60 human tumor cell lines, growth inhibition (Non-Small Cell Lung Cancer); conditions: Homo sapiens

Q: With C=C1C(=O)O[C@H]2[C@H]1CC/C(COC(=O)OCCN(C)C)=C\CC[C@@]1(C)O[C@@H]21 [JVM 2-35] as the compound, how does the GI50 ([1]; Homo sapiens, K562) read?
A: Its GI50 is 5.55 µM.

Q: What about the CC50 ([1]; Homo sapiens, K562, read-out: LC50) of the same compound?
A: The CC50 was greater than 100 µM.

Q: What about the “Percent Growth” value ([1]; K-562, Log10 Concentration −4.0) of the same compound?
A: Its value is −33%.

Q: What about the “Percent Growth” value ([1]; K-562, Log10 Concentration −5.0) of the same compound?
A: The value was 30%.

Q: What about the “Percent Growth” value ([1]; K-562, Log10 Concentration −6.0) of the same compound?
A: Its value is 107%.

Q: What about the “Percent Growth” value ([1]; K-562, Log10 Concentration −7.0) of the same compound?
A: The value was 96%.

Q: What about the “Percent Growth” value ([1]; K-562, Log10 Concentration −8.0) of the same compound?
A: Its value is 101%.

Q: What about the TGI ([1]; K-562, NCI five dose) of the same compound?
A: Its TGI is 3.00E−5.

Q: What about the GI50 ([2]; MDA-MB-435) of the same compound?
A: Its GI50 is 4.03 µM.

Q: And the CC50 ([2]; MDA-MB-435, read-out: LC50)?
A: The CC50 was 45.7 µM.

Q: And the IC (TGI) ([2]; MDA-MB-435, read-out: TGI)?
A: The IC (TGI) was 16.3 µM.

Q: And the GI50 ([3]; SF-268)?
A: Its GI50 is 11.7 µM.

Q: What about the CC50 ([3]; SF-268, read-out: LC50) of the same compound?
A: The CC50 was 69.3 µM.

Q: And the IC (TGI) ([3]; SF-268, read-out: TGI)?
A: The IC (TGI) was 28.5 µM.

Q: What about the GI50 ([4]; SF-539) of the same compound?
A: Its GI50 is 3.86 µM.

Q: And the CC50 ([4]; SF-539, read-out: LC50)?
A: Its CC50 is 41.3 µM.

Q: What about the IC (TGI) ([4]; SF-539, read-out: TGI) of the same compound?
A: The IC (TGI) was 14.7 µM.

Q: What about the GI50 ([5]; COLO 205) of the same compound?
A: The GI50 was 2.19 µM.

Q: And the CC50 ([5]; COLO 205, read-out: LC50)?
A: The CC50 was 18.6 µM.

Q: And the IC (TGI) ([5]; COLO 205, read-out: TGI)?
A: Its IC (TGI) is 5.46 µM.

Q: And the GI50 ([6]; HCT-116, HCT-116, NCI five dose)?
A: The GI50 was 2.66 µM.

Q: What about the CC50 ([6]; HCT-116, read-out: LC50) of the same compound?
A: Its CC50 is 33.6 µM.

Q: And the IC (TGI) ([6]; HCT-116, read-out: TGI)?
A: The IC (TGI) was 11.3 µM.

Q: And the GI50 ([7]; SW-620, SW-620, NCI five dose)?
A: The GI50 was 3.58 µM.

Q: What about the CC50 ([7]; SW-620, read-out: LC50) of the same compound?
A: Its CC50 is 50.6 µM.

Q: And the IC (TGI) ([7]; SW-620, read-out: TGI)?
A: Its IC (TGI) is 15 µM.

Q: What about the GI50 ([8]; 786-0) of the same compound?
A: Its GI50 is 2.75 µM.

Q: What about the CC50 ([8]; 786-0, read-out: LC50) of the same compound?
A: Its CC50 is 37.3 µM.

Q: What about the IC (TGI) ([8]; 786-0, read-out: TGI) of the same compound?
A: The IC (TGI) was 12.1 µM.

Q: And the GI50 [9]?
A: Its GI50 is 3.26 µM.

Q: And the CC50 ([9]; read-out: LC50)?
A: The CC50 was 40.9 µM.

Q: What about the IC (TGI) ([9]; read-out: TGI) of the same compound?
A: The IC (TGI) was 13.4 µM.

Q: What about the GI50 ([10]; UO-31) of the same compound?
A: Its GI50 is 4.58 µM.

Q: What about the CC50 ([10]; UO-31, read-out: LC50) of the same compound?
A: The CC50 was 48.3 µM.

Q: And the IC (TGI) ([10]; UO-31, read-out: TGI)?
A: Its IC (TGI) is 18.6 µM.

Q: And the GI50 [11]?
A: The GI50 was 13.6 µM.

Q: What about the CC50 ([11]; read-out: LC50) of the same compound?
A: Its CC50 is greater than 100 µM.

Q: What about the IC (TGI) ([11]; read-out: TGI) of the same compound?
A: Its IC (TGI) is 59.3 µM.

Q: And the GI50 ([12]; BT-549)?
A: The GI50 was 5.82 µM.

Q: What about the CC50 ([12]; BT-549, read-out: LC50) of the same compound?
A: Its CC50 is 44.8 µM.

Q: And the IC (TGI) ([12]; BT-549, read-out: TGI)?
A: Its IC (TGI) is 19.5 µM.

Q: What about the GI50 [13] of the same compound?
A: The GI50 was 2.95 µM.

Q: And the CC50 ([13]; read-out: LC50)?
A: The CC50 was 58.8 µM.

Q: What about the IC (TGI) ([13]; read-out: TGI) of the same compound?
A: The IC (TGI) was 12.4 µM.

Q: What about the GI50 ([14]; IGROV-1) of the same compound?
A: Its GI50 is 17.7 µM.

Q: And the CC50 ([14]; IGROV-1, read-out: LC50)?
A: Its CC50 is greater than 100 µM.

Q: And the IC (TGI) ([14]; IGROV-1, read-out: TGI)?
A: The IC (TGI) was 44 µM.

Q: What about the GI50 ([15]; OVCAR-5) of the same compound?
A: The GI50 was 13.1 µM.

Q: What about the CC50 ([15]; OVCAR-5, read-out: LC50) of the same compound?
A: Its CC50 is 57 µM.

Q: What about the IC (TGI) ([15]; OVCAR-5, read-out: TGI) of the same compound?
A: Its IC (TGI) is 27.3 µM.

Q: What about the GI50 ([16]; OVCAR-8) of the same compound?
A: The GI50 was 13.5 µM.

Q: And the CC50 ([16]; OVCAR-8, read-out: LC50)?
A: The CC50 was 96 µM.

Q: And the IC (TGI) ([16]; OVCAR-8, read-out: TGI)?
A: The IC (TGI) was 36 µM.

Q: And the GI50 [17]?
A: Its GI50 is 23.7 µM.

Q: What about the CC50 ([17]; read-out: LC50) of the same compound?
A: Its CC50 is greater than 100 µM.

Q: What about the IC (TGI) ([17]; read-out: TGI) of the same compound?
A: Its IC (TGI) is 84.6 µM.

Q: What about the GI50 ([18]; NCI-H522) of the same compound?
A: Its GI50 is 1.5 µM.

Q: And the CC50 ([18]; NCI-H522, read-out: LC50)?
A: Its CC50 is 9.57 µM.

Q: And the IC (TGI) ([18]; NCI-H522, read-out: TGI)?
A: Its IC (TGI) is 3.79 µM.
